Laboratory results reported in PubChem BioAssay (NCI).
Where “and” joins values, the source holds several entries; their conditions need not be identical. Equal values may be shown once.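 Where inhibition never reached the appropriate level, the endpoint shown equals the highest concentration tested. Otherwise, values were interpolated linearly from a five-concentration, 48-hour dose response in 96-well plates. GI50: concentration for 50% inhibition of growth. The concentration for full growth arrest is given as TGI.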

Columns and labels:
Test in all cases: DTP human tumour cell line panel, 48 h
IGROV1 ovarian = test system: IGROV1 ovarian
OVCAR-5 ovarian = test system: OVCAR-5 ovarian
UACC-62 melanoma = test system: UACC-62 melanoma
SK-OV-3 ovarian = test system: SK-OV-3 ovarian
RXF 393 renal = test system: RXF 393 renal
MALME-3M melanoma = test system: MALME-3M melanoma
SF-539 CNS = test system: SF-539 CNS
SNB-75 CNS = test system: SNB-75 CNS
HCT-116 colon = test system: HCT-116 colon
LOX IMVI melanoma = test system: LOX IMVI melanoma

| Structure (SMILES) | GI50 (IGROV1 ovarian) [µM] | TGI (IGROV1 ovarian) | GI50 (OVCAR-5 ovarian) [µM] | TGI (OVCAR-5 ovarian) | GI50 (UACC-62 melanoma) [µM] | TGI (UACC-62 melanoma) [µM] | GI50 (SK-OV-3 ovarian) [µM] | TGI (SK-OV-3 ovarian) | GI50 (RXF 393 renal) [µM] | TGI (RXF 393 renal) [µM] | GI50 (MALME-3M melanoma) [µM] | TGI (MALME-3M melanoma) [µM] | GI50 (SF-539 CNS) [µM] | TGI (SF-539 CNS) | GI50 (SNB-75 CNS) [µM] | TGI (SNB-75 CNS) | GI50 (HCT-116 colon) [µM] | TGI (HCT-116 colon) [µM] | GI50 (LOX IMVI melanoma) [µM] | TGI (LOX IMVI melanoma) [µM] |
| --- | --- | --- | --- | --- | --- | --- | --- | --- | --- | --- | --- | --- | --- | --- | --- | --- | --- | --- | --- | --- |
| COc1cc(/C=C/[N+](=O)[O-])cc(Br)c1OC | 1.84 | 4.54 µM | 14.3 | 30.8 µM | 3.49 | 12.2 | 13.4 | 26.5 µM | 1.61 | 3.01 | 2.61 | 8.13 | 2.49 | 6.62 µM | 1.85 | 5 µM | 1.78 | 3.22 | 0.899 | 2.18 |
| CN1CCC(n2cnc(-c3ccc(F)cc3)c2-c2ccnc(N)n2)CC1 | 6.48 | > 20.7 µM | 13.8 | > 25 µM | 14.1 | > 25 | 10.8 | > 25 µM | 9.74 | > 25 | 8.77 | > 25 | 14.2 | > 25 µM | 10 | > 23.9 µM | 8.19 | > 25 | 6.95 | > 25 |
| Nc1ccc(-c2nc3ccccc3[nH]2)c2ccccc12 | 3.36 | 42.6 µM | 6.08 | > 53.5 µM | 7.51 | > 27.6 | 3.23 | 57.5 µM | 1.83 | 12.2 | 1.36 | 21.6 | 3.11 | 17 µM | 0.809 | 4.39 µM | 3.3 | 12.6 | 4.97 | 48.1 |
| C/C1=C\[C@@H](O)C(=O)/C=C/C=C\c2csc(n2)[C@@H](C)NC(=O)C[C@@]2(CC1)S(=O)SC(=O)[C@]2(C)O (stereo partly specified) | 0.0237 | 0.552 µM and 0.23 µM | 0.0169 | 0.699 µM and 0.145 µM | – | 0.0487 | 0.181 | 0.472 µM and 2.74 µM | – | 0.0331 | – | 0.025 | – | 0.0495 µM and 0.023 µM | – | 0.0995 µM and 0.0219 µM | 0.0045 | 0.0259 | – | 0.0605 |
| BrCc1ccc(CBr)cc1 | 7 | > 87.4 µM | 9.61 | 29.1 µM | 5.13 | 22.3 | 0.477 | 7.24 µM | 5.61 | 16.2 | 4.56 | 12.5 | 3.02 | 11.8 µM | 18.8 | > 100 µM | 5.4 | – | 4.51 | > 100 |
| Fc1cccc(C2SCc3nc4ccccc4n32)c1F (stereo unspecified) | – | > 100 µM | – | > 100 µM | – | > 100 | – | > 100 µM | – | > 100 | – | > 100 | – | > 100 µM | – | > 100 µM | – | > 100 | – | > 100 |
| CC1(C)N=C(N)N=C(N)N1c1ccc(CCCCc2ccc(S(=O)(=O)F)cc2)c(Cl)c1 | 0.0592 | 21.5 µM | 0.124 | 83.8 µM | 0.0559 | 19.6 | 7.97 | 25.5 µM | 0.0862 | > 61.2 | 12 | 35.9 | 0.391 | 13.9 µM | 0.514 | 18.9 µM | 0.0483 | 18.9 | 0.0723 | 15.3 |
| CN(C)c1ccc(/C=C2\C=Cc3ccccc32)cc1 | – | > 100 µM | – | > 100 µM | – | > 100 | – | > 100 µM | – | 84.4 | – | > 100 | – | > 100 µM | – | 57 µM | – | > 100 | – | > 100 |
| CN(CCCCCl)P(=O)(OCCS(=O)(=O)CC(NC(=O)CCC(N)C(=O)O)C(=O)NC(C(=O)O)c1ccccc1)OCC1OC(n2cc(F)c(=O)[nH]c2=O)CC1O (stereo unspecified) | 0.0884 | > 100 µM | > 27.4 | > 100 µM | > 100 | > 100 | 41.3 | > 100 µM | 4 | > 100 | 8.98 | > 72.2 | < 0.0105 | 7.74 µM | 14.5 | > 100 µM | 0.161 | 39.9 | < 0.0127 | 52.2 |
| COc1cc2c(cc1OC)C1(c3ccc(Cl)cc3)ON=C(c3ccccc3)N1CS2 (stereo unspecified) | – | > 100 µM | – | > 100 µM | – | > 100 | – | > 100 µM | – | > 100 | – | > 100 | – | > 100 µM | – | > 100 µM | – | > 100 | – | > 100 |
| COc1ccc(C=O)c(NC(=O)C(C)C)c1 | – | > 100 µM | – | > 100 µM | – | > 100 | – | > 100 µM | – | 64.5 | – | 94.4 | – | > 100 µM | – | > 100 µM | – | 31.2 | – | > 100 |
| CCN1C(=O)N(CC)C2C1NN=c1s/c(=C3\C(=O)N(CCc4ccccc4)c4ccccc43)c(=O)n12 (stereo unspecified) | 0.672 | – | 0.927 | – | 0.637 | 11.5 | 0.542 | 5.77 µM | 0.262 | 1.01 | 1.04 | 20 | 0.228 | 0.643 µM | 0.289 | 2.09 µM | 0.347 | 1.4 | 0.527 | 4.94 |
| CC(C)(C)CN1CCn2c(nc3c(N)nccc32)S1 | 11.7 | 30.3 µM | 12.9 | 42 µM | 13.7 | 88.5 | 5.15 | 81 µM | 15.7 | 64.5 | 7.72 | 41.3 | 18.2 | 78.9 µM | 51.5 | > 100 µM | 4.61 | 17.1 | 9.5 | 23.5 |
| Cc1cccc(NC(=O)c2sc3nc4c(cc3c2N)CN(Cc2ccccc2)CC4)c1C | 0.337 | > 50 µM | 0.484 | > 50 µM | 0.274 | > 50 | 0.216 | > 50 µM | 0.133 | 2.11 | 0.239 | > 50 | 0.165 | 28.2 µM | 0.112 | 0.419 µM | 0.227 | > 50 | 0.254 | > 50 |
